This passage reports Kd results from the kinase profiling compilation of Christmann-Franck et al. (2016).

Among the targets are BRSK2 (human) (UniProt Q8IWQ3); LTK (human) (UniProt P29376); PAK2 (human) (UniProt Q13177); PRKAA1 (human) (UniProt Q13131); PTK2 (human) (UniProt Q05397); PTK2B (human) (UniProt Q14289); ROS1 (human) (UniProt P08922); RPS6KA4 KD1 (human) (UniProt O75676); RPS6KA5 KD1 (human) (UniProt O75582).
The target of assay [1] is TYK2 JH1 catalytic (human) (UniProt P29597).
Chain of TYK2 JH1 catalytic (human) (P29597 whole entry, looked up): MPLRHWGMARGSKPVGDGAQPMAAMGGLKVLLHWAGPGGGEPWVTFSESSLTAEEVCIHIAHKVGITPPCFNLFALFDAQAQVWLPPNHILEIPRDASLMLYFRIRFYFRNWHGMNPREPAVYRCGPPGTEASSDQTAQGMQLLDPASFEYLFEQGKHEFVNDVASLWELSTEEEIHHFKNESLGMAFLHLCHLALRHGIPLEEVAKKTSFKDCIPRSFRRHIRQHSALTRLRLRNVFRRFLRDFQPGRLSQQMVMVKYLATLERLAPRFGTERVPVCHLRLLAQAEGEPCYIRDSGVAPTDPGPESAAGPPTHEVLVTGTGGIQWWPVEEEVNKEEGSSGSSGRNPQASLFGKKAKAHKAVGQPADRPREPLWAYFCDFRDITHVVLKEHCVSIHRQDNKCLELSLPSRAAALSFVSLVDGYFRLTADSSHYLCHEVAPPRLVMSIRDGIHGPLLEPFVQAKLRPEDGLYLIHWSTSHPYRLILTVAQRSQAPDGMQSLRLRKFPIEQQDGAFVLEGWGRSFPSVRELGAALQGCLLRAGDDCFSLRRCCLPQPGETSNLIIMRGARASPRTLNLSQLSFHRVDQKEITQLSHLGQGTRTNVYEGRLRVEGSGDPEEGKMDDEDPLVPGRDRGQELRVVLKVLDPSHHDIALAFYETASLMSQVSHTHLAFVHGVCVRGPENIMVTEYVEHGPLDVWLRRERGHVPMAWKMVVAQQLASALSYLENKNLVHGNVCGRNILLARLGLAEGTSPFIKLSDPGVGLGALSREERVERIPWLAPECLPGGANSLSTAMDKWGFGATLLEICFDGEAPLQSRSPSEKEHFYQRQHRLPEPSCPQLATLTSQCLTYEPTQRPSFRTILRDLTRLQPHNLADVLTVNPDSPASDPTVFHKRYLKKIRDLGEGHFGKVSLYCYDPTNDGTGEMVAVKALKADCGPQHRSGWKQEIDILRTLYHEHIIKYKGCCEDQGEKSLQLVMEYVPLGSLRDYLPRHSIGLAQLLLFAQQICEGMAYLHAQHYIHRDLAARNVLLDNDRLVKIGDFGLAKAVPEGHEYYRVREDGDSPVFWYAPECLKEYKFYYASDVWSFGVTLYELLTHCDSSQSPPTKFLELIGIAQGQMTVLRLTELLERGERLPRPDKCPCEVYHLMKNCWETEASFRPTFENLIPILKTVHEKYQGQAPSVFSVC

Chain of PTK2 (human) (Q05397 whole entry, looked up): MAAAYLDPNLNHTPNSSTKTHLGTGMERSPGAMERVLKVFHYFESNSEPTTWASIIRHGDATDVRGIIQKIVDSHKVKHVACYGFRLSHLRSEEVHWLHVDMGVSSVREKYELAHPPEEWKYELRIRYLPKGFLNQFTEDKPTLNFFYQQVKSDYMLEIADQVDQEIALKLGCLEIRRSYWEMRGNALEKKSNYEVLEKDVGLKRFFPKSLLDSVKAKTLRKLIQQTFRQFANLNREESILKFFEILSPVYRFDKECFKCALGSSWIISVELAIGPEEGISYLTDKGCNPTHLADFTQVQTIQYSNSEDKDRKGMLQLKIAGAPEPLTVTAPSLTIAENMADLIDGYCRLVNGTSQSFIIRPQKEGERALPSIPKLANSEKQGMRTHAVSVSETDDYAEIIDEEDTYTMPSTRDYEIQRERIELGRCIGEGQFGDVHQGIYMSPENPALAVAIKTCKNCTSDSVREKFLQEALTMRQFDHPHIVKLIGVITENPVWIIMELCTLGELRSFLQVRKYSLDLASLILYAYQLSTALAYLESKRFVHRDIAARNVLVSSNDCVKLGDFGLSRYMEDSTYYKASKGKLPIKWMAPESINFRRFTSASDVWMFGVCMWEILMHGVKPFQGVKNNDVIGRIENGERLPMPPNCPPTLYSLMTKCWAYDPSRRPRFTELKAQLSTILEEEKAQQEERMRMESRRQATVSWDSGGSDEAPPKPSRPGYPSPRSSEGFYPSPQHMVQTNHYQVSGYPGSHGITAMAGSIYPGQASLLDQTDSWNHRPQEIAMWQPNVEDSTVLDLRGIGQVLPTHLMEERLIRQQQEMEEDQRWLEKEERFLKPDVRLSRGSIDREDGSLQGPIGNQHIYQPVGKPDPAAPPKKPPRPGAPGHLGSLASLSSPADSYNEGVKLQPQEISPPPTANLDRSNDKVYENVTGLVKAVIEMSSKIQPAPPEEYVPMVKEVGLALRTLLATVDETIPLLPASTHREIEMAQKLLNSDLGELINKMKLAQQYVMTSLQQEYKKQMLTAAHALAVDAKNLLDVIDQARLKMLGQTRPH
Chain of BRSK2 (human) (Q8IWQ3 whole entry, looked up): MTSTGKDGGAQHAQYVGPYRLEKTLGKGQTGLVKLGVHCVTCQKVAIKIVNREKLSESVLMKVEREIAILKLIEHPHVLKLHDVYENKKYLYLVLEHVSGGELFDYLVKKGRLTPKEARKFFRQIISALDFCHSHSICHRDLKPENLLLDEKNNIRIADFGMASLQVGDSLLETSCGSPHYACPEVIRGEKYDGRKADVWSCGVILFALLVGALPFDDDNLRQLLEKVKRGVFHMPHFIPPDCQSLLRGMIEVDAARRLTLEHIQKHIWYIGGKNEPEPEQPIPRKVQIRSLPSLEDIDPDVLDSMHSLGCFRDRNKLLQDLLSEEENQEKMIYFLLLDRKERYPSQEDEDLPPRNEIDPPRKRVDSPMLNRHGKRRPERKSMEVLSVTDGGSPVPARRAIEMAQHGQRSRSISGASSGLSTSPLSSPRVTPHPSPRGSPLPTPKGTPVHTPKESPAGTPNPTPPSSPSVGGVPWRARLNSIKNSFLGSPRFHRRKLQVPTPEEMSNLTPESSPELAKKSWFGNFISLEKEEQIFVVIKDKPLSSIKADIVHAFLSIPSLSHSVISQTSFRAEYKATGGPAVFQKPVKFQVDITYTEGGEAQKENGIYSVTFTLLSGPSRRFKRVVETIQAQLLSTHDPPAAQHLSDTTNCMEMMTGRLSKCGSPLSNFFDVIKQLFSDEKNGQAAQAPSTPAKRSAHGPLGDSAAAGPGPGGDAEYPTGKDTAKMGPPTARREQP
Chain of PTK2B (human) (Q14289 whole entry, looked up): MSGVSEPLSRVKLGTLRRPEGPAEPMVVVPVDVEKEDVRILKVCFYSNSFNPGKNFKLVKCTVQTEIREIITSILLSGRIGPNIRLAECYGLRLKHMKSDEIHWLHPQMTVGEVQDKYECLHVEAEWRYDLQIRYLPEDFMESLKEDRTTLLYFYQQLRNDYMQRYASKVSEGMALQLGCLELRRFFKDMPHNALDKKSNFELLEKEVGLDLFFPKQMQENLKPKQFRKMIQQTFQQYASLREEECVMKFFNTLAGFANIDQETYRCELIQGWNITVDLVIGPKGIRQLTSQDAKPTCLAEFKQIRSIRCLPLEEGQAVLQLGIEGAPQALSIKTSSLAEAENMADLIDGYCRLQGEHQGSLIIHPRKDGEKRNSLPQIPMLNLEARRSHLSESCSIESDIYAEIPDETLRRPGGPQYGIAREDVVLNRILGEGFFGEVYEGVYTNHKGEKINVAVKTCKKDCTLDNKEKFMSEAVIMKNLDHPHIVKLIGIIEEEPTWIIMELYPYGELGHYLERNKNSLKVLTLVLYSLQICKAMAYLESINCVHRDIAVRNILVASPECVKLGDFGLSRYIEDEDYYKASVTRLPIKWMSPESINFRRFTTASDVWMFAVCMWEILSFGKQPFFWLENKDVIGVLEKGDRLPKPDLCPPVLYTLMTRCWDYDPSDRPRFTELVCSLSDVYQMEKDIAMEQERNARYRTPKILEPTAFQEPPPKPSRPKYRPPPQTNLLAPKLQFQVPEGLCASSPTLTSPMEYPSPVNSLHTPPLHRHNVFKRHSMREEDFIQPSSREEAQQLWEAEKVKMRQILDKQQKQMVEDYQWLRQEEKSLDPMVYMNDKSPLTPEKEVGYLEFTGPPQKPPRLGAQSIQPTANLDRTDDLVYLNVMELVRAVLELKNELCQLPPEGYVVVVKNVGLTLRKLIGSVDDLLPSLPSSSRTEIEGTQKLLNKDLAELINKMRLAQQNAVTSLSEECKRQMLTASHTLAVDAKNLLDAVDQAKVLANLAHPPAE
Chain of RPS6KA5 KD1 (human) (O75582 whole entry, looked up): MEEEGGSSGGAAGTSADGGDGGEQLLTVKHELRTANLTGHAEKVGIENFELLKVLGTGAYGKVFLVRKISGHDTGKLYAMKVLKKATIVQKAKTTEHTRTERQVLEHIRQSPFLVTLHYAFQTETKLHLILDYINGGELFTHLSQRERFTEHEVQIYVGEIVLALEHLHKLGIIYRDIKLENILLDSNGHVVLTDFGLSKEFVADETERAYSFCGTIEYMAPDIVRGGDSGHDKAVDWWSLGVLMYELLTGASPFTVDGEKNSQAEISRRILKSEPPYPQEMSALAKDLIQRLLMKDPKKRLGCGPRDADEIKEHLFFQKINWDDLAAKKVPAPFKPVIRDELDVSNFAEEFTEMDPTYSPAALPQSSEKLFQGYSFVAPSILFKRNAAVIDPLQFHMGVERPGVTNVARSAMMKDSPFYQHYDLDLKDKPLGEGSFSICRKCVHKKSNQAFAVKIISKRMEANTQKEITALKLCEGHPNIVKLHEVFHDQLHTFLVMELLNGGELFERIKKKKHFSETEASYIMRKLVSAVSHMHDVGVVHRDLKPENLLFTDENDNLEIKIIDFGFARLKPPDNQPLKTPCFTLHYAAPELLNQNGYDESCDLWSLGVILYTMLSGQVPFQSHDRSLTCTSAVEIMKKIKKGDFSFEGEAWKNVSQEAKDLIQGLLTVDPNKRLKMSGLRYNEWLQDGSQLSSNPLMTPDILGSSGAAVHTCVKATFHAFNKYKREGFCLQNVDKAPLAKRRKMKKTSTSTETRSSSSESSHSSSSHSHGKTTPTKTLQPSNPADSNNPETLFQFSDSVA

In the case of `CCS(=O)(=O)Nc1ccc2c(c1)[C@H](/C(=N/c1ccc(CN3CCCCC3)cc1)c1ccccc1)C(=O)N2`, the dissociation constant (Kd) turned out to be 92 nM at BRSK2 (human); 52 nM at LTK (human); 14000 nM on PAK2 (human); 19 nM on PRKAA1 (human); 33 nM on PTK2 (human); 10 nM on PTK2B (human). In addition, the Kd on ROS1 (human) was determined as 77 nM; at RPS6KA4 KD1 (human), 94 nM; at RPS6KA5 KD1 (human), 31 nM; in [1], 75 nM.
